Among the test systems are HCT-116 colon; OVCAR-5 ovarian; SW-620 colon; SK-MEL-28 melanoma; MOLT-4 leukemia; CCRF-CEM leukemia; SF-539 CNS; DU-145 prostate; SR leukemia; A498 renal.
What all share (experiment): inhibition of tumour cell growth, NCI panel, 48 h

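Method: 48-hour compound exposure of cells in 96-well plates, five concentrations, linear interpolation of endpoints. At the TGI there is no net growth.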

For the compound `C=C(C)COc1cc(NC(=S)OC(C)C)ccc1Cl`, the TGI amounted to 28.4 µM in the assay on HCT-116 colon; 29.4 µM with OVCAR-5 ovarian; 27.6 µM in the assay with SW-620 colon; 31.8 µM in the assay with SK-MEL-28 melanoma; 34.3 µM in the assay on MOLT-4 leukemia; 39.2 µM in the assay with CCRF-CEM leukemia. Moreover, the TGI with SF-539 CNS amounted to 30 µM; in the assay with DU-145 prostate, 31.1 µM.

For `C=C1CN2CCc3c([nH]c4ccccc34)C2CC1CC(=O)N(C)C` (configuration not stated), the TGI in the assay on HCT-116 colon, in the assay with SW-620 colon, in the assay on SK-MEL-28 melanoma, in the assay on MOLT-4 leukemia, in the assay with CCRF-CEM leukemia and in the assay on SR leukemia was above 309 µM throughout. In addition, the TGI in the assay with SF-539 CNS was above 309 µM.

Turning to `CC1CCc2c(sc3ncnc(N/N=C/c4ccc(Cl)cc4)c23)C1` (configuration not stated), the TGI in the assay with HCT-116 colon is above 100 µM; in the assay with OVCAR-5 ovarian, above 100 µM; with SW-620 colon it was above 100 µM; in the assay with SK-MEL-28 melanoma it was above 100 µM; in the assay with MOLT-4 leukemia, 57.3 µM; in the assay on SR leukemia, 55 µM.

In the case of `CC(C)CC1N=C(OCc2ccccc2)OC1=O` (configuration not stated), the TGI in the assay with A498 renal, with HCT-116 colon, with OVCAR-5 ovarian, in the assay on SW-620 colon, with SK-MEL-28 melanoma and in the assay on MOLT-4 leukemia was above 100 µM each time. In addition, the TGI with CCRF-CEM leukemia, in the assay on SF-539 CNS and in the assay on DU-145 prostate was above 100 µM in each case.

For `C=C1CC[C@@H]2[C@](C)(COC(=O)CCC(=O)O)CCC[C@@]2(C)[C@@H]1CCC1=CC(=O)OC1`, the TGI in the assay with A498 renal, in the assay on HCT-116 colon, with OVCAR-5 ovarian, in the assay on SW-620 colon, in the assay on SK-MEL-28 melanoma and in the assay with MOLT-4 leukemia was above 100 µM throughout. The TGI is above 100 µM in the assay with CCRF-CEM leukemia, above 100 µM in the assay with SF-539 CNS and 38.7 µM with DU-145 prostate.

On to `Cn1c(=O)n(C2(C)CSC2)c2ccccc21`, for which the TGI in the assay with A498 renal, in the assay with HCT-116 colon, in the assay on OVCAR-5 ovarian, with SW-620 colon, with SK-MEL-28 melanoma and in the assay on MOLT-4 leukemia was above 100 µM throughout. The TGI in the assay on CCRF-CEM leukemia, with SR leukemia and in the assay with SF-539 CNS was above 100 µM in each case.

As for `N#C/C(=C\c1ccc[nH]1)C(=O)c1ccccc1`, the TGI in the assay on HCT-116 colon, in the assay on OVCAR-5 ovarian, in the assay with SW-620 colon, in the assay with SK-MEL-28 melanoma, in the assay with MOLT-4 leukemia and in the assay with CCRF-CEM leukemia was above 100 µM in each case. Also, the TGI in the assay on SR leukemia and in the assay with SF-539 CNS was above 100 µM in each case.

On to `CCCCCCCCCCCCCCCC(=O)OC1C(O)C(O)C(O)C(O)C12CO2` (configuration not stated), for which the TGI with A498 renal was above 100 µM; in the assay on HCT-116 colon it was above 100 µM; in the assay with OVCAR-5 ovarian it was above 100 µM; in the assay on SW-620 colon, 40 µM; with SK-MEL-28 melanoma, above 100 µM; in the assay on MOLT-4 leukemia it was 42.7 µM. Moreover, the TGI with CCRF-CEM leukemia was 41.1 µM; in the assay on SF-539 CNS, 63.9 µM; in the assay on DU-145 prostate, above 100 µM.

`COc1ccc(-c2cc(=O)c3cc(O)ccc3o2)c(OC)c1OC`: the TGI was 61.8 µM with HCT-116 colon; 81.4 µM in the assay with OVCAR-5 ovarian; above 100 µM in the assay on SW-620 colon; above 100 µM with SK-MEL-28 melanoma; 70.6 µM in the assay with CCRF-CEM leukemia; 77.6 µM in the assay on SR leukemia. Besides, the TGI in the assay on SF-539 CNS is above 100 µM.

On to `COC(=O)c1c2c(cc3c1CC1(C3)Cc3cc4c(c(C(=O)OC)c3C1)CCC4)CCC2`, for which the TGI with A498 renal, in the assay with HCT-116 colon, with OVCAR-5 ovarian, with MOLT-4 leukemia, in the assay with CCRF-CEM leukemia and in the assay on SR leukemia was above 100 µM throughout. The compound also displayed a TGI with SF-539 CNS above 100 µM.

Regarding `OCC1OC(n2cnc3c(Cl)nc(Nc4ccc(Cl)c(Cl)c4)nc32)CC1O` (configuration not stated), the TGI in the assay on A498 renal was 18.9 µM; with HCT-116 colon, 28.9 µM; in the assay on OVCAR-5 ovarian, above 50 µM; with SW-620 colon, 27.5 µM; in the assay on MOLT-4 leukemia, 12.5 µM; in the assay with CCRF-CEM leukemia, 18.1 µM. In addition, the TGI with DU-145 prostate was determined as 48.6 µM.

With `COc1cccc(/C=N/[N-]C(N)=O)c1[O-].[Co+2].[OH3+].c1ccncc1`, the TGI with HCT-116 colon, in the assay with OVCAR-5 ovarian, with SW-620 colon, in the assay with SK-MEL-28 melanoma, in the assay on MOLT-4 leukemia and in the assay with CCRF-CEM leukemia was above 100 µM in each case. In the assay on SF-539 CNS, this compound came in with a TGI above 100 µM.

For `O[C@@]12Cc3c([nH]c4ccccc34)[C@@H]3Oc4c(-c5ccccc5)ccc5c4[C@@]31CCN(CC1CC1)[C@@H]2C5`, the TGI in the assay on A498 renal amounted to 2.79 µM; in the assay on HCT-116 colon, 3.1 µM; in the assay on OVCAR-5 ovarian, 15.1 µM; in the assay with SW-620 colon it was 4.61 µM; with SK-MEL-28 melanoma it was 3.24 µM; with MOLT-4 leukemia it was 11 µM. In addition, the values for the TGI in the assay with CCRF-CEM leukemia and with SR leukemia were 7.56 µM and above 100 µM, respectively.

As for `CC1(C)[C@H]2Cc3cc4nc5ccccn5c4cc3[C@@H]1C2`, the TGI with HCT-116 colon was 33 µM; in the assay on OVCAR-5 ovarian, 30.8 µM; in the assay on SW-620 colon, 52.5 µM; with SK-MEL-28 melanoma it was 36.3 µM; in the assay on MOLT-4 leukemia it was 54.8 µM; in the assay with CCRF-CEM leukemia it was 75.1 µM. In addition, the values for the TGI in the assay with SF-539 CNS and with DU-145 prostate were 33.6 µM and 41 µM, respectively.

As for `O=C1N[C@H](C(=O)O)[C@@H](c2ccc(OCc3ccccc3)cc2)O1`, the TGI in the assay on HCT-116 colon, in the assay with OVCAR-5 ovarian, in the assay with SW-620 colon, in the assay on SK-MEL-28 melanoma, in the assay on MOLT-4 leukemia and in the assay on CCRF-CEM leukemia was above 100 µM in each case. The same compound registered a TGI in the assay on DU-145 prostate above 100 µM.

Turning to `Cc1c(C#N)c2nc3ccccc3n2c(=O)/c1=C/Nc1ccc(Cl)cc1`, the TGI was 72.5 µM in the assay on A498 renal; above 100 µM with HCT-116 colon; above 100 µM in the assay on OVCAR-5 ovarian; above 100 µM in the assay with SW-620 colon; above 100 µM with SK-MEL-28 melanoma; above 100 µM in the assay on MOLT-4 leukemia. The TGI in the assay with SR leukemia was above 100 µM; with SF-539 CNS, 30.5 µM.

With `COc1ccc(/C=C/C(=O)CCN2CCN(CCC(=O)/C=C/c3ccc(OC)cc3)CC2)cc1`, the TGI in the assay on A498 renal was 16.2 µM; in the assay on HCT-116 colon it was 11.1 µM; in the assay with OVCAR-5 ovarian it was 35.3 µM; in the assay on SW-620 colon, 19.7 µM; in the assay with SK-MEL-28 melanoma it was 28.4 µM; with MOLT-4 leukemia, above 100 µM. The TGI with SF-539 CNS is 19.1 µM; in the assay with DU-145 prostate it was 71.1 µM.

Values taken from PubChem BioAssay (NCI).
